Reference: patent US20240100065A1, “METHODS FOR TREATING RECEPTOR-INTERACTING PROTEIN KINASE 1-MEDIATED DISEASES” (Genzyme Corporation, priority 2022, published 2024)

Assay: Safety and tolerability (TEAEs, PCSAs, laboratory tests) in phase 1 study Parts 1a, 1b, 2
Assay type: in vivo, healthy adult participants (human)
Procedure: This single ascending dose (SAD) study consisted of three parts: Part 1a, which is a phase 1, randomized, placebo-controlled, double-blind, sequential ascending single dose study; Part 1b, which is phase 1, open-label, sequential single dose study; and Part 2, which is an ascending 14-day repeated oral dose study.
Part 1a evaluated 4 sequential ascending dose levels of Compound 1 under fasted conditions: 10 mg, 20 mg, 30 mg, and 40 mg, each dose per cohort. Participants were fasted overnight for at least 8 hours before the morning dose and 2 hours after dosing.
Part 1b is an open-label study with two single dose levels of Compound 1, previously tested for safety/tolerability in SAD cohorts of Part 1a, were selected (10 mg and 40 mg) and sequentially administered under a fed condition, each dose per cohort. Participants were fasted overnight for at least 8 hours, and then fed with a light breakfast approximately 30 minutes before Compound 1 dosing. In both Part 1a and 1b, all participants received one single dose of treatment.
Part 2 was a randomized, double-blind, placebo-controlled study that evaluated 14-day multiple ascending oral doses of Compound 1 once daily (OD) or twice daily (BID) regimen under fasted conditions: 10 mg QD, 20 mg QD, 15 mg BID, and 20 mg BID. Participants fasted overnight for at least 8 hours before the morning dose and 2 hours after dosing on Day 1 and Day 14. All other morning doses were administered after an overnight fast and approximately 30 minutes before a breakfast snack. Sentinel dosing approach was followed where two of ten participants in each cohort were dosed the first day (n=1, Compound; n=1, placebo) in advance of the full cohort. The remaining 8 participants from each cohort were randomized to receive either Compound or placebo (randomized 7:1) on the following days with at least 48-hour interval from dosing of the sentinel participants, allowing a safety evaluation at the predicted steady state.
Safety and tolerability were assessed by physical examination, neurological examination, monitoring adverse events (AEs) and potentially clinically significant abnormalities (PCSAs) in clinical laboratory tests (hematology, clinical chemistry, and urinalysis), vital signs (body temperature, blood pressure and heart rate), and ECG parameters (heart rate, RR, PR, QRS, QT, QTcF, QTcB intervals) measured in the standard 12-lead ECG or ECGs extracted from 24-hour Holter ECG data.
Safety population included all participants who received at least one dose of study intervention (Compound 1 or placebo). All safety assessments (AEs, laboratory parameters, vital signs) were based on the review of individual values and were summarized using descriptive statistics. Safety analysis was focused on treatment-emergent period, defined as the time from the first investigational medicinal product (IMP) administration up to the end of study visit (included). AEs were coded according to the Medical Dictionary for Regulatory Activities (MedDRA, version 23.1 in Part 1a and Part 1b; version 24 in Part 2). Severity was graded from Grade 1 to 4 according to the Food and Drug Administration (FDA) Guidance for Industry. Number (%) of participants experiencing TEAEs and potentially clinically significant abnormality (PCSAs) in clinical chemistry, vital signs, and ECGs were summarized by dose level group.

## CC(C)(C(=O)N1CCOc2c(C#N)cncc2C1)C(F)F [Compound 1, 4-(3,3-difluoro-2,2-dimethyl-propanoyl)-3,5-dihydro-2H-pyrido[3,4-f] [1,4]oxazepine-9-carbonitrile]
Part 1a single 10 mg fasted
  Any Grade ≥3 TEAE, participants: 0 n
  Any TEAE, participants: 2 n
  Any treatment-emergent AESI, participants: 0 n
  Any treatment-emergent SAE, participants: 0 n
  TEAE Blood creatine phosphokinase increased, participants: 0 n
  TEAE Cardiac disorders, participants: 1 n
  TEAE Dermatitis contact, participants: 1 n
  TEAE Dizziness, participants: 0 n
  TEAE Eye disorders, participants: 0 n
  TEAE Fatigue, participants: 0 n
  TEAE General disorders and administration site conditions, participants: 0 n
  TEAE Headache, participants: 0 n
  TEAE Investigations, participants: 0 n
  TEAE Keratitis, participants: 0 n
  TEAE Medical device site dermatitis, participants: 0 n
  TEAE Musculoskeletal and connective tissue disorders, participants: 0 n
  TEAE Myalgia, participants: 0 n
  TEAE Nervous system disorders, participants: 0 n
  TEAE Presyncope, participants: 0 n
  TEAE Skin and subcutaneous tissue disorders, participants: 1 n
  TEAE Skin irritation, participants: 0 n
  TEAE Tachycardia, participants: 0 n
  TEAE Thrombophlebitis, participants: 0 n
  TEAE Vascular disorders, participants: 0 n
  TEAE Ventricular extrasystoles, participants: 1 n
  TEAE Vessel puncture site hypoaesthesia, participants: 0 n
  TEAE Vessel puncture site pain, participants: 0 n
Part 1a single 20 mg fasted
  Any Grade ≥3 TEAE, participants: 0 n
  Any TEAE, participants: 1 n
  Any treatment-emergent AESI, participants: 0 n
  Any treatment-emergent SAE, participants: 0 n
  TEAE Blood creatine phosphokinase increased, participants: 0 n
  TEAE Cardiac disorders, participants: 1 n
  TEAE Dermatitis contact, participants: 0 n
  TEAE Dizziness, participants: 0 n
  TEAE Eye disorders, participants: 0 n
  TEAE Fatigue, participants: 0 n
  TEAE General disorders and administration site conditions, participants: 0 n
  TEAE Headache, participants: 1 n
  TEAE Investigations, participants: 0 n
  TEAE Keratitis, participants: 0 n
  TEAE Medical device site dermatitis, participants: 0 n
  TEAE Musculoskeletal and connective tissue disorders, participants: 0 n
  TEAE Myalgia, participants: 0 n
  TEAE Nervous system disorders, participants: 1 n
  TEAE Presyncope, participants: 0 n
  TEAE Skin and subcutaneous tissue disorders, participants: 0 n
  TEAE Skin irritation, participants: 0 n
  TEAE Tachycardia, participants: 1 n
  TEAE Thrombophlebitis, participants: 0 n
  TEAE Vascular disorders, participants: 0 n
  TEAE Ventricular extrasystoles, participants: 0 n
  TEAE Vessel puncture site hypoaesthesia, participants: 0 n
  TEAE Vessel puncture site pain, participants: 0 n
Part 1a single 30 mg fasted
  Any Grade ≥3 TEAE, participants: 0 n
  Any TEAE, participants: 3 n
  Any treatment-emergent AESI, participants: 0 n
  Any treatment-emergent SAE, participants: 0 n
  Dizziness, events: 3 events
  TEAE Blood creatine phosphokinase increased, participants: 0 n
  TEAE Cardiac disorders, participants: 0 n
  TEAE Dermatitis contact, participants: 1 n
  TEAE Dizziness, participants: 2 n
  TEAE Eye disorders, participants: 1 n
  TEAE Fatigue, participants: 1 n
  TEAE General disorders and administration site conditions, participants: 1 n
  TEAE Headache, participants: 0 n
  TEAE Investigations, participants: 0 n
  TEAE Keratitis, participants: 1 n
  TEAE Medical device site dermatitis, participants: 0 n
  TEAE Musculoskeletal and connective tissue disorders, participants: 0 n
  TEAE Myalgia, participants: 0 n
  TEAE Nervous system disorders, participants: 2 n
  TEAE Presyncope, participants: 0 n
  TEAE Skin and subcutaneous tissue disorders, participants: 1 n
  TEAE Skin irritation, participants: 0 n
  TEAE Tachycardia, participants: 0 n
  TEAE Thrombophlebitis, participants: 1 n
  TEAE Vascular disorders, participants: 1 n
  TEAE Ventricular extrasystoles, participants: 0 n
  TEAE Vessel puncture site hypoaesthesia, participants: 0 n
  TEAE Vessel puncture site pain, participants: 0 n
Part 1a single 40 mg fasted
  Any Grade ≥3 TEAE, participants: 0 n
  Any TEAE, participants: 3 n
  Any treatment-emergent AESI, participants: 0 n
  Any treatment-emergent SAE, participants: 0 n
  Dizziness, events: 1 event
  TEAE Blood creatine phosphokinase increased, participants: 0 n
  TEAE Cardiac disorders, participants: 1 n
  TEAE Dermatitis contact, participants: 1 n
  TEAE Dizziness, participants: 1 n
